{"source": "patent US4966770A", "about": "(priority 1989, dated 1990)", "origin": "cited, not measured here", "data": [{"smiles": "C[C@]12C=CC(=O)C=C1CC[C@@H]1[C@@H]2C(=O)C[C@@]2(C)[C@H]1CC[C@]2(O)C(=O)CO", "note": "[prednisone]", "values": [{"measurement": "solubility in alcohol", "result": "slightly soluble in alcohol"}, {"measurement": "solubility in water", "result": "very slightly soluble in water"}]}]}
